# Measurements taken from publication PMC6240096, “A hPSC-based platform to discover gene-environment interactions that impact human β-cell and dopamine neuron survival” (Nature Communications, 2018).
# pIC50: −log10 of the molar value.
# Assays:
# MIN6 cells = test: Apoptosis analysis (Annexin V flow cytometry, active caspase-3 staining); assay type: cell-based, mouse; conditions: immunocytochemistry, 1.6 µM
# Method: Cells were fixed with 10% (v/v) formalin for 20 min at room temperature (RT) and blocked in a solution of Mg^2+- and Ca^2+-free PBS containing 5% horse serum and 0.3% Triton-X for 1 h at room temperature and followed by incubation with primary antibody at 4 °C overnight. […]
# Cells were dissociated by Accutase (Stem Cells) and washed with cold DPBS and then detected with FITC Annexin V Apoptosis Detection Kit I (BD Bioscience, 556547), and analyzed within 1 h by FACSVantage SE (Becton Dickinson). […]
# cells. (b, c) Flow cytometry analysis (b) and quantification (c) of the percentage of […]
# Etoposide was used as a positive control. Values presented as mean±S.D. (d, e) Immunocytochemistry analysis (d) and quantification (e) of the percentage of Active Caspase-3+ cells in 1.6 µM propargite treated MIN6 cells (n=3). […]
# INS+ cells = test: High-content survival / inhibitory curve, hESC-derived INS+ cells; assay type: cell-based, human; conditions: H1 hESC-derived, β-cell differentiation protocol 1, 4 days treatment, n = 8; read-out: IC50 for INS+ cells
# Method: The screening library ToxCast Phase I was obtained from the US Environmental Protection Agency, which contains approximately 2000 compounds dissolved at 20 mM in DMSO. The H1 hESC-derived population was dissociated with Accutase and re-plated onto laminin V-coated 384-well plates at 5000 cells per well. After 16 h incubation, cells were treated with individual compounds from the ToxCast library with four concentrations, including 20 nM, 200 nM, 2 μM, and 20 μM, for each compound. After 4 days, the cells were fixed with 10% formalin and stained with an INS antibody and DAPI, followed by automatic imaging and analysis by ImageXpress^MICRO Automated High-Content Analysis System (Molecular Devices) to count the numbers of INS^+ and INS^− cells. The survival rate was calculated by dividing the numbers of INS^+ cells in compound treated conditions by the average number of INS^+ cells in DMSO-treated conditions. The compounds that induced more than 60% reduction of the survival rate of INS^+ cells and less than 20% of the INS^− cells were chosen as primary hits. Hit compounds were then selected and validated in three additional independent experiments using the same protocol as the primary screening.
# hESCs-derived INS^+ cells, MSCs[43], neurons, and hepatocytes[44] were derived based on the reported protocols and re-plated on 96-well plates with Accutase digestion. Cardiomyocytes (CMs) were differentiated from H9-MYH6: mCherry reporter line, based on the reported protocol. After overnight incubation, cells were treated with DMSO or different doses of hit compounds for 4 days. After fixation, the cells were stained with markers for each cell type. DAPI was used to stain cell nuclei. Plates were analyzed by ImageXpress^MICRO Automated High-Content Analysis System.
# EndoC-βH1-Luc cells = test: Humanized NSG mice transplanted with EndoC-βH1-Luc cells; assay type: in vivo, human; conditions: 12 mg/kg
# Method: LentiLuc-blast plasmid was constructed based on the LentiCas9-blast vector (Addgene, 52926). The luciferase gene was driven by a constitutively active EFS promoter. EndoC-βH1 cells were infected with the lentivirus followed by 4 days selection with 20 μg/ml blasticidin to create EndoC-βH1-Luc cells. Adult 6–8 week old female NSG immunodeficient mice (Jackson Laboratory) were transplanted with 5 × 10^5 EndoC-βH1-Luc cells to create a humanized mouse model. Baseline luminescent levels were obtained 5 days after transplantation. 12 mg/kg propargite or vehicle were then administrated for 5 days via intraperitoneal injection (the starting day referred to as day 0). In vivo imaging was performed on day 1, 3, and 5 with an Xtreme Optical and X-ray small animal imaging system. During the imaging, isoflurane was used for anesthesia. 2 mg/150 µl/25 g body weight luciferin potassium salt (Regis, 360223) was applied to each mouse. To generate EndoC-βH1-Luc cells carrying sgGSTT1 or sgGFP, EndoC-βH1-Luc cells were infected with the lentivirus carrying Cas9 and sgRNAs (sgGSTT1 or sgGFP), and purified with 2 days selection using 1 μg/ml puromycin. Adult 6–8-week-old female NSG-immunodeficient mice (Jackson Laboratory) were transplanted with 5 × 10^5 EndoC-βH1-Luc cells carrying sgGSTT1 or sgGFP (control). 12 mg/kg propargite or vehicle were administrated for 3 days via intraperitoneal injection, mice were then sacrificed at day 3. The xenografts were embedded in OCT. The tissue was then sectioned at 5 μm to detect cell death with TUNEL assays (In Situ Cell Death Detection Kit, TMR red, Sigma, 12156792910) and for immunohistochemistry staining analysis of β-cell marker INS to measure cell death rate in EndoC-βH1-Luc cells carrying sgGSTT1 or sgGFP.
substance,measurement,setting,value
2-(4-tert-butylphenoxy)-cyclohexyl prop-2-yne-1-sulfonate [propargite],caspase-3 activation,MIN6 cells,nor caspase-3 activation
same,pIC50,INS+ cells,5.96
same,cell death rate (TUNEL) of EndoC-βH1-Luc cells carrying sgGSTT1 vs sgGFP,EndoC-βH1-Luc cells; day 3,higher cell death rate
same,luciferase signal of EndoC-βH1-Luc cells,EndoC-βH1-Luc cells; day 3,slower rate increase
same,luciferase signal of EndoC-βH1-Luc cells,EndoC-βH1-Luc cells; day 5,marked decrease
